Common to all, as to assay: relative viability (nuclei count vs DMSO), 5 days (fraction); higher = more cells survive
Compound in the assay “XMD8-85 + Crizotinib”: CN1CCN(CC1)C2=CC(=C(C=C2)NC3=NC=C4C(=N3)N(C5=CC=CC=C5C(=O)N4C)C)OC [XMD8-85] + C[C@@H](Oc1cc(-c2cnn(C3CCNCC3)c2)cnc1N)c1c(Cl)ccc(F)c1Cl [Crizotinib] (partner 1 µM)
The method, boiled down:
(§1)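 Lung cancer cell lines, seeded in 1536-well plates, were treated the following day by pin tool with a single drug or with five library-drug doses (not always all listed) in √10 steps on top of a fixed anchor-drug dose. Cells were fixed and nuclei stained in one step after 5 days, and nuclei were counted. Relative viability is the nuclei count for treated wells divided by that for vehicle wells, reported as medians of duplicate plates.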

Compound in the assay “4EGI-1 + OSI-027”: O=C(O)C(Cc1ccccc1[N+](=O)[O-])=NNc1nc(-c2ccc(Cl)c(Cl)c2)cs1 (mixture of isomers) [4EGI-1] + COc1cccc2cc(-c3nc([C@H]4CC[C@H](C(=O)O)CC4)n4ncnc(N)c34)[nH]c12 [OSI-027] (partner 0.5 µM)
The method, boiled down: as §1

Compound in the assay “XMD8-85 + Luminespib”: CN1CCN(CC1)C2=CC(=C(C=C2)NC3=NC=C4C(=N3)N(C5=CC=CC=C5C(=O)N4C)C)OC [XMD8-85] + CCNC(=O)c1noc(-c2cc(C(C)C)c(O)cc2O)c1-c1ccc(CN2CCOCC2)cc1 [Luminespib] (partner 0.01 µM)
The method, boiled down:
as §1

Compound in the assay “XMD8-85 + Pemetrexed”: CN1CCN(CC1)C2=CC(=C(C=C2)NC3=NC=C4C(=N3)N(C5=CC=CC=C5C(=O)N4C)C)OC [XMD8-85] + Nc1nc2[nH]cc(CCc3ccc(C(=O)N[C@@H](CCC(=O)O)C(=O)O)cc3)c2c(=O)[nH]1 [Pemetrexed] (partner 0.2 µM)
The method, boiled down:
as §1

For the cell line EPLC-272H, the relative viability in the assay with XMD8-85 + Crizotinib (first compound 0.253 µM) amounted to 0.678; with XMD8-85 + Crizotinib (first compound 0.8 µM) it was 1.03; with XMD8-85 + Crizotinib (first compound 2.53 µM), 0.947; with XMD8-85 + Crizotinib (first compound 8 µM) it was 0.691; with 4EGI-1 + OSI-027 (first compound 0.5 µM), 0.317; in the assay with 4EGI-1 + OSI-027 (first compound 5 µM), 0.285. The relative viability stood at 0.274 with 4EGI-1 + OSI-027 (first compound 15.81 µM); 0.172 with 4EGI-1 + OSI-027 (first compound 50 µM); 0.266 with XMD8-85 + Luminespib (first compound 0.08 µM); 0.373 with XMD8-85 + Luminespib (first compound 0.253 µM); 0.629 in the assay with XMD8-85 + Luminespib (first compound 0.8 µM); 0.389 in the assay with XMD8-85 + Luminespib (first compound 2.53 µM). Further, the relative viability worked out at 0.186 with XMD8-85 + Luminespib (first compound 8 µM); 0.279 with XMD8-85 + Pemetrexed (first compound 0.08 µM); 0.318 in the assay with XMD8-85 + Pemetrexed (first compound 0.253 µM); 0.314 in the assay with XMD8-85 + Pemetrexed (first compound 0.8 µM); 0.223 with XMD8-85 + Pemetrexed (first compound 2.53 µM); 0.36 with XMD8-85 + Pemetrexed (first compound 8 µM).
As to PC-3 [JPC-3], the relative viability was 0.827 with XMD8-85 + Crizotinib (first compound 0.08 µM); 1.12 with XMD8-85 + Crizotinib (first compound 0.253 µM); 1.01 in the assay with XMD8-85 + Crizotinib (first compound 0.8 µM); 1.09 in the assay with XMD8-85 + Crizotinib (first compound 2.53 µM); 0.986 with XMD8-85 + Crizotinib (first compound 8 µM); 0.778 with 4EGI-1 + OSI-027 (first compound 0.5 µM). In addition, the relative viability with 4EGI-1 + OSI-027 (first compound 1.581 µM) stood at 0.73; in the assay with 4EGI-1 + OSI-027 (first compound 5 µM), 0.746; with 4EGI-1 + OSI-027 (first compound 50 µM), 0.498; with XMD8-85 + Luminespib (first compound 0.08 µM), 0.725; with XMD8-85 + Luminespib (first compound 0.253 µM), 0.805; in the assay with XMD8-85 + Luminespib (first compound 0.8 µM) it was 0.663. For the same cell line, the relative viability with XMD8-85 + Luminespib (first compound 2.53 µM) amounted to 0.82; in the assay with XMD8-85 + Luminespib (first compound 8 µM), 0.543; in the assay with XMD8-85 + Pemetrexed (first compound 0.08 µM), 1.21; with XMD8-85 + Pemetrexed (first compound 0.253 µM), 0.928; with XMD8-85 + Pemetrexed (first compound 0.8 µM), 1.1; with XMD8-85 + Pemetrexed (first compound 2.53 µM), 1.27. The relative viability with XMD8-85 + Pemetrexed (first compound 8 µM) was 0.452.
For the cell line SW 1573, the relative viability worked out at 0.817 with XMD8-85 + Crizotinib (first compound 0.08 µM); 0.705 with XMD8-85 + Crizotinib (first compound 0.253 µM); 0.822 with XMD8-85 + Crizotinib (first compound 0.8 µM); 0.867 with XMD8-85 + Crizotinib (first compound 2.53 µM); 0.456 in the assay with XMD8-85 + Crizotinib (first compound 8 µM); 0.884 in the assay with 4EGI-1 + OSI-027 (first compound 0.5 µM). Also, the relative viability with 4EGI-1 + OSI-027 (first compound 1.581 µM) is 0.431; in the assay with 4EGI-1 + OSI-027 (first compound 5 µM), 0.703; with 4EGI-1 + OSI-027 (first compound 15.81 µM) it was 0.284; with 4EGI-1 + OSI-027 (first compound 50 µM) it was 0.11; with XMD8-85 + Luminespib (first compound 0.08 µM), 0.276; with XMD8-85 + Luminespib (first compound 0.253 µM) it was 0.189. Further, the relative viability was found to be 0.183 with XMD8-85 + Luminespib (first compound 0.8 µM); 0.172 in the assay with XMD8-85 + Luminespib (first compound 2.53 µM); 0.175 in the assay with XMD8-85 + Luminespib (first compound 8 µM); 0.831 with XMD8-85 + Pemetrexed (first compound 0.08 µM); 0.813 with XMD8-85 + Pemetrexed (first compound 0.253 µM); 1.06 with XMD8-85 + Pemetrexed (first compound 0.8 µM). Besides, the results for the relative viability with XMD8-85 + Pemetrexed (first compound 2.53 µM) and with XMD8-85 + Pemetrexed (first compound 8 µM) were 0.895 and 0.461, respectively.
For the cell line NCI-H520, the relative viability in the assay with XMD8-85 + Crizotinib (first compound 0.08 µM) came to 0.796; in the assay with XMD8-85 + Crizotinib (first compound 0.253 µM) it was 0.572; in the assay with XMD8-85 + Crizotinib (first compound 0.8 µM) it was 0.914; in the assay with XMD8-85 + Crizotinib (first compound 2.53 µM) it was 0.673; with XMD8-85 + Crizotinib (first compound 8 µM), 0.324; with 4EGI-1 + OSI-027 (first compound 0.5 µM), 0.262. For the same cell line, the relative viability with 4EGI-1 + OSI-027 (first compound 1.581 µM) came out at 0.325; with 4EGI-1 + OSI-027 (first compound 5 µM) it was 0.314; with 4EGI-1 + OSI-027 (first compound 15.81 µM), 0.345; in the assay with 4EGI-1 + OSI-027 (first compound 50 µM), 0.179; with XMD8-85 + Luminespib (first compound 0.08 µM), 0.235; with XMD8-85 + Luminespib (first compound 0.253 µM) it was 0.257. In addition, the relative viability with XMD8-85 + Luminespib (first compound 0.8 µM) worked out at 0.192; in the assay with XMD8-85 + Luminespib (first compound 2.53 µM), 0.202; with XMD8-85 + Luminespib (first compound 8 µM), 0.201; with XMD8-85 + Pemetrexed (first compound 0.08 µM), 0.709; in the assay with XMD8-85 + Pemetrexed (first compound 0.253 µM) it was 0.697; with XMD8-85 + Pemetrexed (first compound 0.8 µM), 0.75. The relative viability with XMD8-85 + Pemetrexed (first compound 2.53 µM) came out at 0.595; with XMD8-85 + Pemetrexed (first compound 8 µM), 0.361.

(Values after the supplement of paper PMC10307832.)
